The supplement of paper PMC10307832

Legend:
Test in all cases: relative viability (nuclei count vs DMSO), 5 days (fraction); higher = more cells survive
[1] = compound: CC1=C(C(=NN1)C)CC2=C(C3=C(S2)N(C(=O)N(C3=O)C)CC(C)C)C(=O)N4C[C@@H](CO4)O + Cc1nc(NC(=O)N2CCC[C@H]2C(N)=O)sc1-c1ccnc(C(C)(C)C(F)(F)F)c1 [Alpelisib] (partner 2 µM)
Method in brief: (§1)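 Lung cancer cell lines in 1536-well plates were dosed by pin tool the day after seeding, either with one drug alone or with a fixed anchor-drug dose plus five library-drug doses (not always all listed) in √10 steps. After 5 days, cells were fixed and their nuclei stained in one step (final 0.05% Triton X-100, 1% formaldehyde, 1 ug/ml Hoechst), then counted on 4× images. Relative viability is the nuclei count in treated wells divided by that in vehicle wells. Values are medians of duplicate plates.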

[2] = compound: CC1=C(C(=NN1)C)CC2=C(C3=C(S2)N(C(=O)N(C3=O)C)CC(C)C)C(=O)N4C[C@@H](CO4)O + O=C(c1cc(Cc2n[nH]c(=O)c3ccccc23)ccc1F)N1CCN(C(=O)C2CC2)CC1 [Olaparib] (partner 8 µM)
Method in brief: as §1

[3] = compound: Cc1ccccc1C(C(=O)NC1CCCCC1)N(C(=O)Cn1ccnc1C)c1cccc(F)c1 [IDH-C35] + CC(C)C[C@H](NC(=O)[C@H](Cc1ccccc1)NC(=O)c1cnccn1)B(O)O [Bortezomib] (partner 0.002 µM)
Method in brief: as §1

[4] = compound: Cc1ccccc1C(C(=O)NC1CCCCC1)N(C(=O)Cn1ccnc1C)c1cccc(F)c1 [IDH-C35] + C[C@]1(O)C[C@@H](c2nc(-c3ccc4ccc(-c5ccccc5)nc4c3)c3c(N)nccn32)C1 [Linsitinib] (partner 1 µM)
Method in brief: as §1

Row | Cell Line | relative viability ([1]; first compound 0.0025 µM) | relative viability ([1]; first compound 0.007906 µM) | relative viability ([1]; first compound 0.025 µM) | relative viability ([1]; first compound 0.07906 µM) | relative viability ([1]; first compound 0.25 µM) | relative viability ([2]; first compound 0.0025 µM) | relative viability ([2]; first compound 0.007906 µM) | relative viability ([2]; first compound 0.025 µM) | relative viability ([2]; first compound 0.07906 µM) | relative viability ([2]; first compound 0.25 µM) | relative viability ([3]; first compound 0.08 µM) | relative viability ([3]; first compound 0.253 µM) | relative viability ([3]; first compound 0.8 µM) | relative viability ([3]; first compound 2.53 µM) | relative viability ([3]; first compound 8 µM) | relative viability ([4]; first compound 0.08 µM) | relative viability ([4]; first compound 0.253 µM) | relative viability ([4]; first compound 0.8 µM) | relative viability ([4]; first compound 2.53 µM) | relative viability ([4]; first compound 8 µM)
1 | HCC-44 | 0.817 | 0.851 | 0.798 | 0.795 | 0.777 | 1.02 | 1 | 0.952 | 0.891 | 1.05 | 0.899 | 0.934 | 0.88 | 0.86 | 0.843 | 0.656 | 0.628 | 0.647 | 0.876 | 0.69
2 | HCC-827 | 1.01 | 1.01 | 0.962 | 0.93 | 0.939 | 0.641 | 0.629 | 0.58 | 0.612 | 0.612 | 1.07 | 1.02 | 1.07 | 1.08 | 1.01 | 0.99 | 0.889 | 0.98 | 0.837 | 1
3 | NCI-H2347 | 1.16 | 1.01 | 1.11 | 0.964 | 0.964 | 0.574 | 0.624 | 0.468 | 0.508 | 0.587 | 0.912 | 1.02 | 0.929 | 1.08 | 0.878 | 0.973 | 0.932 | 1.01 | 0.987 | 0.918
4 | PC-14 | 1.05 | 0.877 | 0.886 | 0.974 | 0.975 | 0.295 | 0.203 | 0.239 | 0.25 | 0.368 | 0.983 | 0.897 | 0.792 | 0.834 | 0.767 | 0.967 | 0.939 | 0.938 | 0.95 | 0.862
5 | NCI-H1651 | 1.07 | 1.02 | 0.923 | 0.961 | 0.945 | 0.178 | 0.172 | 0.205 | 0.193 | 0.199 | 0.884 | 0.999 | 0.878 | 0.992 | 0.876 | 0.918 | 0.925 | 0.966 | 1.02 | 0.903
6 | HARA | 1.01 | 0.922 | 0.837 | 0.768 | 0.801 | 1.1 | 0.76 | 0.689 | 0.542 | 0.81 | 1.18 | 1.04 | 1.13 | 1.15 | 1.05 | 0.993 | 0.933 | 1.04 | 0.988 | 0.907
7 | NCI-H1650 |  |  |  |  |  | 0.826 | 0.823 | 0.759 | 0.79 | 0.797 | 0.227 | 0.205 | 0.229 | 0.213 | 0.213 |  |  |  |  | 
8 | NCI-H1395 | 1.04 | 0.898 | 1.06 | 0.983 | 1.01 | 0.552 | 0.408 | 0.38 | 0.342 | 0.403 |  |  |  |  |  | 1.2 | 1.04 | 1.1 | 1.09 | 0.956
